Test results reported in paper PMC6694155, “PTPσ inhibitors promote hematopoietic stem cell regeneration” (Nature Communications, 2019).
Several values for one entry are separate records, joined by “and”; a condition that tells them apart may be missing. Equal entries are not always repeated.

Columns and labels:
[1] = test system: BM KSL cells; assay: Gene expression of pro- and anti-apoptotic genes in irradiated BM KSL cells (qPCR); format: cell-based, mouse; design: key to Figure 3g: gene expression, Bax / Figure 3g: gene expression, Bcl-2 / Figure 3g: gene expression, Bcl-xL / Figure 3g: gene expression, Bim / Figure 3g: gene expression, Mcl1: fold change, 2^-ΔΔCt vs media-treated non-irradiated KSL, Gapdh-normalized
Source text: For all studies, RNA was isolated using the Qiagen RNeasy micro kit (Qiagen). RNA was reverse transcribed using the High-Capacity cDNA Reverse Transcription Kit (ThermoFisher Scientific) and was then used for quantitative PCR with SYBR Select Master Mix (Life Technologies). Values were normalized to housekeeping gene Gapdh/GAPDH and given as ΔΔCt values normalized to media-treated, non-irradiated BM KSL cells (2(−ΔΔC(T)) method)[67].

[2] = test system: C57BL/6 mice; assay: Cytokine analysis in vivo (BM supernatant at day +5); design: species or system mouse; PTN: unit not given beside the values; IFN-g / IL-1a / IL-1b / IL-2 / IL-4 / IL-3 / IL-5 / IL-6 / IL-7 / IL-9 / IL-10 / IL-12(p40) / IL-12(p70) / LIF / IL-13 / LIX / IL-15 / IL-17 / IP-10 / CXCL12 / SCF / TPO / EGF / DKK / G-CSF / Eotaxin / GM-CSF / KC / MCP-1 / MIP-1a / MIP-1b / M-CSF / MIP-2 / MIG / RANTES / VEGF / TNF-a: unit not given here
Description: For in vitro cytokine measurements, 3.5 × 10^4 BM KSL cells were irradiated with 300 cGy and cultured in TSF media with and without 1 μg/mL DJ001. Non-irradiated KSL cells were cultured in TSF media with and without 1 μg/mL DJ001. At 12 h of culture, culture supernatants were collected for analysis. For in vivo cytokine measurements, adult C57BL/6 mice were irradiated with 750 cGy TBI and then treated with 5 mg/kg of DJ001 or vehicle, subcutaneously, from day + 1 to day + 5. Non-irradiated mice received the identical regimen of 5 mg/kg DJ001 or vehicle for 5 days. Mice were killed and BM cells were collected into IMDM. Cells were pelleted and the BM supernatant was collected and sent to the UCLA Immune Assessment Core for cytokine analysis. All samples were tested on a mouse 32-plex Cytokine/Chemokine panel platform from EMD Milipore using Luminex’s xMAP® immunoassay technology (Luminex, Inc.). In addition, the following cytokine levels were assessed by solid-phase ELISA assay according to the manufacturer’s description: CXCL12 (R&D Systems), SCF (R&D Systems), Thrombopoietin (TPO) (R&D Systems), PTN (Biomatik), DKK1 (R&D Systems), and EGF (R&D Systems).

[3] = test system: CDC42-GTP in BM lin− cells; assay: G-LISA activation assay: CDC42-GTP; format: cell-based, mouse; conditions: for CDC42-GTP level (G-LISA): Supplementary Figure 7b (right panel)
Description: The RAC1-GTP, RHOA-GTP, and CDC42-GTP activation levels in BM lin^− cells were measured using a colorimetric-based RAC1-, RHOA-, and CDC42 G-LISA Activation Assay Kit (Cytoskeleton, Inc.). BM cells from femurs and tibias were isolated from 12-week-old Ptprs^+/+ and Ptprs^−/− mice. Cells were then depleted of lineage-committed cells with Direct Lineage Cell Depletion Kit (Miltenyi Biotec, #130-110-470; 1:5). The BM lin^− cell fraction was then serum starved in Iscove’s modified Dulbecco’s medium (IMDM) and treated with either vehicle (equal amount of DMSO) or 1 μg/mL DJ001 for 10 min at 37 °C. After treatment, cells were washed with ice-cold PBS and then placed in lysis buffer supplemented with protease inhibitor. Lysate concentrations were measured by Pierce^TM BCA Protein Assay Kit (ThermoFisher Scientific). G-LISA was performed according to the manufacturer’s instructions. Briefly, 12.5 μg of lysates was added to a GTP-binding protein pre-coated plate and active RAC1-GTP, RHOA-GTP, or CDC42-GTP levels were measured at 490 nm using a PowerWave XS2 microplate reader (BioTek).

[4] = BM KSL cells, 12 h post 300 cGy
[5] = irradiated BM KSL cells, qPCR, replicates
[6] = 750cGy, Supplementary Figure 6c
[7] = 750cGy, Supplementary Figure 6d
[8] = NI (non-irradiated), Supplementary Figure 6c
[9] = NI (non-irradiated), Supplementary Figure 6d

## O=C(/C=C\Nc1cccc([N+](=O)[O-])c1)c1ccccc1 [DJ001, (Z)-3-((3-nitrophenyl)amino)-1-phenylprop-2-en-1-one]
[1]; [4]
  expression of Bim, Bax, Puma, Bcl2: no effect
  expression of Mcl-1 and Bcl2l1: increased the expression
[1]; [5]
  Figure 3g: gene expression, Bax: 2.95 and 3.78 and 1.75
  Figure 3g: gene expression, Bcl-2: 1.73 and 1.94 and 1.28 and 1.59 and 1.76 and 1.06
  Figure 3g: gene expression, Bcl-xL: 4.94 and 3.23 and 6.87 and 4.82 and 3.79 and 5.97
  Figure 3g: gene expression, Bim: 2.95 and 3.78 and 2.75
  Figure 3g: gene expression, Mcl1: 1.95 and 1.78 and 2.55 and 0.81 and 1.62 and 1.96
  Figure 3g: gene expression, Puma: 2.95 and 1.78 and 1.75
[2]; 5 mg/kg DJ001 for 5 days
  cytokine levels in BM of non-irradiated mice: no effects on cytokine levels
[2]; [6]
  IFN-g: 0.02
  IL-1a: 32.33 and 26.87 and 17.68
  IL-2: 1.59 and 2.65 and 1.92
  IL-3: 1.4
  IL-4: 1.41
  IL-5: 3.23 and 2.28
  IL-6: 1.83 and 1.7
  IL-9: 198.07 and 228.02 and 160.28
  IL-10: 0.57
  IL-12(p40): 0.61
  IL-12(p70): 3.18
  IL-13: 7.43
  IL-15: 2.73
  IL-17: 0.09
  IP-10: 44.2 and 47.75 and 46.43
  LIX: 516.55 and 495.26 and 507.12
[2]; [7]
  CXCL12: 552 and 624 and 905
  DKK: 169.52 and 249.19 and 307.94
  EGF: 11.77 and 17.58 and 11.6
  Eotaxin: 67.39 and 68.27 and 79.6
  G-CSF: 64.72 and 76.01 and 58.45
  GM-CSF: 15.66
  KC: 22.82 and 26.89 and 24.21
  MCP-1: 8.72 and 10.08 and 6.75
  MIG: 128.05 and 148.17 and 148.91
  MIP-1a: 29.47 and 26.14
  MIP-1b: 3.05
  PTN: 102.04 and 118.97 and 192.81
  RANTES: 2.96 and 2.94
  SCF: 146.274 and 131.091 and 159.522
  TNF-a: 3.15
  TPO: 49.177 and 67.682 and 63.573
  VEGF: 1.01 and 1.11
[2]; [8]
  IL-1b: 0.97
  IL-3: 1.4
  IL-4: 1.41
  IL-5: 2.28
  IL-7: 0.9937 and 1.153
  IL-10: 1.167 and 1.4327
  IL-12(p40): 0.74
  IL-12(p70): 3.18
  IL-13: 7.43 and 9.117
  IL-15: 2.73
  IL-17: 0.21
  IP-10: 33.483 and 30.0231 and 37.7364
  LIF: 0.3842
  LIX: 761.708 and 684.296 and 1083.25
[2]; [9]
  CXCL12: 622.694 and 560.08 and 714.605
  DKK: 277.711 and 227.737 and 332.999
  EGF: 2.362 and 1.271 and 1.363
  Eotaxin: 99.795 and 115.637 and 94.9841
  G-CSF: 0.02
  GM-CSF: 15.66
  KC: 2.085 and 1.462 and 2.044
  M-CSF: 2.427 and 3.036 and 4.571
  MCP-1: 3.63 and 5.244
  MIG: 98.9578 and 70.0219 and 103.204
  MIP-1b: 7.1682 and 4.315
  MIP-2: 21.5628 and 31.4245 and 16.3073
  PTN: 163.391 and 261.361 and 175.154
  RANTES: 4.272 and 4.763 and 5.943
  SCF: 23.6572 and 17.6223 and 24.6635
  TNF-a: 3.15
  TPO: 7.2054 and 5.699 and 7.158
  VEGF: 1.293 and 2.139 and 2.31
[2]; day +5 following 750 cGy TBI
  CXCL12 levels in BM of irradiated mice vs vehicle: modest increase in CXCL12 levels
  PTN levels in BM of irradiated mice vs vehicle: decrease in PTN levels
[3]; BM lin− cells, 1 μg/mL DJ001, 10 min
  activation of CDC42: did not alter the activation
[3]; Ptprs+/+ cells
  CDC42-GTP level (G-LISA): 0.2383 and 0.2517 and 0.2371
[3]; Ptprs-/- cells
  CDC42-GTP level (G-LISA): 0.1634 and 0.1869 and 0.1735
